Assay results reported in patent US20240252496A1, “SELECTIVE HYPOTHALAMUS PERMEABLE HDAC6 INHIBITORS FORTREATMENT OF LEPTIN-RESISTANT OBESITY” (The Children’s Medical Center Corporation, priority 2022, published 2024).

Tested on: DMH neurons
Experiment: ACY775-responsive DMH neurons in TRAP2 DIO mice (c-fos, HDAC6 depletion, caspase3 ablation)
Type: in vivo
Method: Following the bilateral injection of AAV-sgHDAC6 into the arcuate nucleus of Agrp-ires-cre::LSL-Cas9-GFP (Agrp-Cre^+/−::Cas9^+/−) or control LSL-Cas9-GFP (Cas9^+/−) mice, immunostaining to detect the expression of mCherry and GFP was performed. AAV-sg-HDAC6 injected Agrp-Cre^+/−::Cas9^+/− (HDAC6^Agrp-Δ) and Cas9^+/− (HDAC6^WT) DIO mice (n=7 for each group) were fasted for 24 hours, and injected with ACY775 (10 mg/kg. i.p). Hourly total dark cycle food intake (g) (n=7 for each group) of these mice after ACY775 injection was measured. Body weight of AAV-sg-HDAC6 injected HDAC6^Agrp-Δ (n=11) and HDAC6^WT (n=6) mice were measured during 3 weeks of ACY775 (10 mg/kg/day, i.p.) treatment. Daily average food intake of HDAC6^Agro-Δ (n=11) and HDAC6^WT (n=6) mice was measured during 3 weeks of ACY775 (10 mg/kg/day, i.p.) treatment. 24-hour food intake average of HDAC Agrp- and HDAC6^WT mice during the 3 weeks of ACY775 treatment was assessed. Serum leptin level (ng/ml) of HDAC6^Agrp-Δ and HDAC6^WT mice after 2 weeks of ACY775 treatment (n=13 for HDAC6^WT and n=18 for HDAC6^Agrp-Δ) was measured. Lean mass (g); fat mass; and fat percentage (%) of HDAC Agrp- and HDAC6^WT DIO mice after 3 weeks of ACY775 treatment was measured by DEXA scan. The HDAC6 inhibitor responsive neurons in the dorsomedial hypothalamus (DMH) were assessed. Immunostaining and quantification of c-Fos expression was performed in the DMH of DIO mice following one-time ACY775 treatment (10 mg/kg, i.p.).
Coordinates used for aav-sg-HDAC6 injection into the DMH of c-Fos-iCreER::LSL-Cas9-GFP (TRAP2-Cas9) mouse, mCherry immunostaining in the aav-sg-HDAC6 injected TRAP2-cas9 obese mice, which were treated three weeks earlier with one dose of ACY775 (10 mg/kg, i.p.) (TRAP2-HDAC6^DMH-Δ) or vehicle (TRAP2-HDAC6^WT), followed by 4-Hydroxytamoxifen (4-OHT) injection, were assessed. TRAP2-HDAC6^WT and TRAP2-HDAC6^DMH-Δ mice were fasted 24-h and treated with ACY775 (10 mg/kg, i.p.). Hourly and total dark cycle food intake (g) (n=4 for each group) was determined for these mice after ACY775 injection. Daily body weight of TRAP2-HDAC6^DMH-Δ (n=10) or TRAP2-HDAC6^WT (n=11) DIO mice was measured during 2 weeks of ACY775 (10 mg/kg/day, i.p) treatment. Daily average food intake of TRAP2-HDAC6^DMH-Δ (n=10) or TRAP2-HDAC6^WT (n=11) DIO mice was measured during 2 weeks of ACY775 treatment.
To investigate whether activity of other neuronal populations are altered after HDAC6 inhibitor treatment, c-fos staining was performed in the whole brain of DIO mice, which were acutely treated with ACY775. […] Some of the DMH neurons express high levels of LepRb and involved in regulation of appetite […]. […]

O=C(NO)c1cnc(NC2(c3cccc(F)c3)CCCCC2)nc1 [ACY775, 2-[[1-(3-fluorophenyl)cyclohexyl]amino]-N-hydroxy-5-pyrimidinecarboxamide]
food intake in fasted caspase3^on-DMH vs caspase3^off-DMH mice (10 mg/kg i.p.): significantly higher than caspase3^off-DMH mice | weight and food intake in TRAP2-HDAC6^DMH-Δ and TRAP2-HDAC6^WT mice (2 weeks, 10 mg/kg/day i.p.): lost weight and food intake was reduced equally in both groups | c-fos positive cells in DMH (DIO mice, acute treatment, fasting): major increase in c-fos positive cell number | body weight and food consumption in caspase3^on-DMH mice (chronic, 10 mg/kg/day i.p.): neither reduced the body weight nor the food consumption
